# Source: patent publication US20250382287A1, “PHARMACEUTICALLY ACCEPTABLE SALT AND CRYSTAL FORM OF NITROGEN-CONTAINING BRIDGE HETEROCYCLIC DERIVATIVE, AND METHOD FOR PREPARING SAME” (JIANGSU HENGRUI PHARMACEUTICALS CO., LTD., priority 2022, published 2025)
# How the values were obtained:
# [1] = Influencing factor stability (open flasks, light, high temperature, high humidity, 30 days); settings: for chemical stability under high humidity conditions: high humidity conditions only; for physical stability: light exposure (4500 Lux), 40° C. and 60° C., high humidity RH 75% and 92.5%
# [2] = DVS (dynamic vapor sorption) hygroscopicity testing; format: physicochemical; settings: for hygroscopic weight gain under normal storage conditions / hygroscopic weight gain under accelerated experimental conditions / hygroscopic weight gain under extreme conditions: DVS; for hygroscopic weight gain under normal storage conditions: 25° C. and 60% RH; for hygroscopic weight gain under accelerated experimental conditions: 70% RH; for hygroscopic weight gain under extreme conditions: 90% RH; for crystal form re-identification after DVS testing: XRPD after DVS
# Experimental: DVS refers to dynamic vapor sorption: Surface Measurement Systems instrinsic was adopted; the humidity started at 50%, the humidity range investigated was 0%-95%, and the humidity was increased in increments of 10%; the criterion was that each gradient mass change dM/dT is less than 0.002%, TMAX 360 min, two cycles.
# [3] = Long-term/accelerated stability (sealed, 25° C./60% RH and 40° C./75% RH); settings: for chemical stability / physical stability: 25° C./60% RH and 40° C./75% RH
# [4] = Light exposure (4500 Lux), 5 days, open flask
# [5] = Light exposure (4500 Lux), 10 days, open flask
# [6] = Light exposure (4500 Lux), 30 days, open flask
# [7] = 25° C., 60% RH, sealed, 1 month
# [8] = 25° C., 60% RH, sealed, 2 months
# [9] = 25° C., 60% RH, sealed, 3 months
# [10] = 25° C., 60% RH, sealed, 6 months
# [11] = 40° C., 75% RH, sealed, 1 month
# [12] = 40° C., 75% RH, sealed, 2 months
# [13] = 40° C., 75% RH, sealed, 3 months
# [14] = 40° C., 75% RH, sealed, 6 months
compound,measurement,setting,value
"CCO[C@H]1C[C@H]2CC[C@@](c3ccc(C(=O)O)cc3)(C1)N2Cc1c(OC)cc(C)c2[nH]ccc12.Cl [crystal form II of the hydrochloride, 4-((1S,3S,5R)-3-ethoxy-8-((5-methoxy-7-methyl-1H-indol-4-yl)methyl)-8-azabicyclo[3.2.1]octan-1-yl)benzoic acid-hydrochloride]",Color and state,"[1]; 40° C., 5 days, open flask",White solid
same,Purity %,"[1]; 40° C., 5 days, open flask",99.4%
same,Salt form,"[1]; 40° C., 5 days, open flask",No change
same,Color and state,"[1]; 40° C., 10 days, open flask",White solid
same,Purity %,"[1]; 40° C., 10 days, open flask",99.3%
same,Salt form,"[1]; 40° C., 10 days, open flask",No change
same,Color and state,"[1]; 40° C., 30 days, open flask",White solid
same,Purity %,"[1]; 40° C., 30 days, open flask",98.6%
same,Salt form,"[1]; 40° C., 30 days, open flask",No change
same,Color and state,"[1]; 60° C., 5 days, open flask",White solid
same,Purity %,"[1]; 60° C., 5 days, open flask",99.4%
same,Salt form,"[1]; 60° C., 5 days, open flask",No change
same,Color and state,"[1]; 60° C., 10 days, open flask",White solid
same,Purity %,"[1]; 60° C., 10 days, open flask",98.8%
same,Salt form,"[1]; 60° C., 10 days, open flask",No change
same,Color and state,"[1]; 60° C., 30 days, open flask",White solid
same,Purity %,"[1]; 60° C., 30 days, open flask",97.4%
same,Salt form,"[1]; 60° C., 30 days, open flask",No change
same,Color and state,"[1]; 75% RH, 5 days, open flask",White solid
same,Purity %,"[1]; 75% RH, 5 days, open flask",100.0%
same,Salt form,"[1]; 75% RH, 5 days, open flask",No change
same,Color and state,"[1]; 75% RH, 10 days, open flask",White solid
same,Purity %,"[1]; 75% RH, 10 days, open flask",100.0%
same,Salt form,"[1]; 75% RH, 10 days, open flask",No change
same,Color and state,"[1]; 75% RH, 30 days, open flask",White solid
same,Purity %,"[1]; 75% RH, 30 days, open flask",100.0%
same,Salt form,"[1]; 75% RH, 30 days, open flask",No change
same,Color and state,"[1]; 92.5% RH, 5 days, open flask",White solid
same,Purity %,"[1]; 92.5% RH, 5 days, open flask",100.0%
same,Salt form,"[1]; 92.5% RH, 5 days, open flask",No change
same,Color and state,"[1]; 92.5% RH, 10 days, open flask",White solid
same,Purity %,"[1]; 92.5% RH, 10 days, open flask",100.0%
same,Salt form,"[1]; 92.5% RH, 10 days, open flask",No change
same,Color and state,"[1]; 92.5% RH, 30 days, open flask",White solid
same,Purity %,"[1]; 92.5% RH, 30 days, open flask",100.0%
same,Salt form,"[1]; 92.5% RH, 30 days, open flask",No change
same,Color and state,"[1]; Initial, 0 days",White solid
same,Purity %,"[1]; Initial, 0 days",100.0%
same,Salt form,"[1]; Initial, 0 days",Crystal form
same,Color and state,[1]; [4],White solid
same,Purity %,[1]; [4],99.8%
same,Salt form,[1]; [4],No change
same,Color and state,[1]; [5],White solid
same,Purity %,[1]; [5],99.2%
same,Salt form,[1]; [5],No change
same,Color and state,[1]; [6],White solid
same,Purity %,[1]; [6],96.5%
same,Salt form,[1]; [6],No change
same,chemical stability under high humidity conditions,[1]; 30 days,good
same,physical stability,[1]; 30 days,good
same,hygroscopic weight gain under normal storage conditions,[2],about 3.93%
same,hygroscopic weight gain under accelerated experimental conditions,[2],about 4.28%
same,hygroscopic weight gain under extreme conditions,[2],about 5.00%
same,crystal form re-identification after DVS testing,[2],did not change
same,Purity %,[3]; [7],100.0%
same,Purity %,[3]; [8],100.0%
same,Purity %,[3]; [9],100.0%
same,Salt form,[3]; [9],No change
same,Purity %,[3]; [10],100.0%
same,Salt form,[3]; [10],No change
same,chemical stability,[3]; 6 months,good
same,physical stability,[3]; 6 months,good
same,Purity %,[3]; [11],100.0%
same,Purity %,[3]; [12],100.0%
same,Purity %,[3]; [13],99.9%
same,Purity %,[3]; [14],99.9%
same,Purity %,[3]; Initial,100.0%
"CCO[C@H]1C[C@H]2CC[C@@](c3ccc(C(=O)O)cc3)(C1)N2Cc1c(OC)cc(C)c2[nH]ccc12.Cl [crystal form III of the hydrochloride, 4-((1S,3S,5R)-3-ethoxy-8-((5-methoxy-7-methyl-1H-indol-4-yl)methyl)-8-azabicyclo[3.2.1]octan-1-yl)benzoic acid-hydrochloride]",Color and state,"[1]; 40° C., 5 days, open flask",White solid
same,Purity %,"[1]; 40° C., 5 days, open flask",99.6%
same,Salt form,"[1]; 40° C., 5 days, open flask",No change
same,Color and state,"[1]; 40° C., 10 days, open flask",White solid
same,Purity %,"[1]; 40° C., 10 days, open flask",99.4%
same,Salt form,"[1]; 40° C., 10 days, open flask",No change
same,Color and state,"[1]; 40° C., 30 days, open flask",White solid
same,Purity %,"[1]; 40° C., 30 days, open flask",99.0%
same,Salt form,"[1]; 40° C., 30 days, open flask",No change
same,Color and state,"[1]; 60° C., 5 days, open flask",White solid
same,Purity %,"[1]; 60° C., 5 days, open flask",99.3%
same,Salt form,"[1]; 60° C., 5 days, open flask",No change
same,Color and state,"[1]; 60° C., 10 days, open flask",White solid
same,Purity %,"[1]; 60° C., 10 days, open flask",99.1%
same,Salt form,"[1]; 60° C., 10 days, open flask",No change
same,Color and state,"[1]; 60° C., 30 days, open flask",White solid
same,Purity %,"[1]; 60° C., 30 days, open flask",98.5%
same,Salt form,"[1]; 60° C., 30 days, open flask",No change
same,Color and state,"[1]; 75% RH, 5 days, open flask",White solid
same,Purity %,"[1]; 75% RH, 5 days, open flask",99.6%
same,Salt form,"[1]; 75% RH, 5 days, open flask",No change
same,Color and state,"[1]; 75% RH, 10 days, open flask",White solid
same,Purity %,"[1]; 75% RH, 10 days, open flask",99.6%
same,Salt form,"[1]; 75% RH, 10 days, open flask",No change
same,Color and state,"[1]; 75% RH, 30 days, open flask",White solid
same,Salt form,"[1]; 75% RH, 30 days, open flask",No change
same,Color and state,"[1]; 92.5% RH, 5 days, open flask",White solid
same,Salt form,"[1]; 92.5% RH, 5 days, open flask",No change
same,Color and state,"[1]; 92.5% RH, 10 days, open flask",White solid
same,Salt form,"[1]; 92.5% RH, 10 days, open flask",No change
same,Color and state,"[1]; 92.5% RH, 30 days, open flask",White solid
same,Salt form,"[1]; 92.5% RH, 30 days, open flask",No change
same,Color and state,"[1]; Initial, 0 days",White solid
same,Salt form,"[1]; Initial, 0 days",Crystal form
same,Color and state,[1]; [4],White solid
same,Purity %,[1]; [4],99.2%
same,Salt form,[1]; [4],No change
same,Color and state,[1]; [5],White solid
same,Purity %,[1]; [5],98.4%
same,Salt form,[1]; [5],No change
same,Color and state,[1]; [6],White solid
same,Purity %,[1]; [6],96.2%
same,Salt form,[1]; [6],No change
same,chemical stability under high humidity conditions,[1]; 30 days,good
same,physical stability,[1]; 30 days,good
same,hygroscopic weight gain under normal storage conditions,[2],about 2.57%
same,hygroscopic weight gain under accelerated experimental conditions,[2],about 2.960%
same,hygroscopic weight gain under extreme conditions,[2],about 4.5700%
same,crystal form re-identification after DVS testing,[2],did not change
same,Purity %,[3]; [7],99.6%
same,Purity %,[3]; [8],99.6%
same,Purity %,[3]; [9],99.6%
same,Purity %,[3]; [10],99.6%
same,chemical stability,[3]; 6 months,good
same,physical stability,[3]; 6 months,good
same,Purity %,[3]; [11],99.6%
same,Purity %,[3]; [12],99.5%
same,Purity %,[3]; [13],99.5%
same,Purity %,[3]; [14],99.4%
same,Purity %,[3]; Initial,99.6%
